{
  "source": "paper PMC9090415",
  "about": "“Discovery of small molecule inhibitors of Plasmodium falciparum apicoplast DNA polymerase” (Journal of Enzyme Inhibition and Medicinal Chemistry, 2022)",
  "target": "P. falciparum apicoplast DNA polymerase (Pf-apPOL) (Plasmodium falciparum, UniProt Q8ILY1)",
  "sequence (Q8ILY1 entry or part of it)": "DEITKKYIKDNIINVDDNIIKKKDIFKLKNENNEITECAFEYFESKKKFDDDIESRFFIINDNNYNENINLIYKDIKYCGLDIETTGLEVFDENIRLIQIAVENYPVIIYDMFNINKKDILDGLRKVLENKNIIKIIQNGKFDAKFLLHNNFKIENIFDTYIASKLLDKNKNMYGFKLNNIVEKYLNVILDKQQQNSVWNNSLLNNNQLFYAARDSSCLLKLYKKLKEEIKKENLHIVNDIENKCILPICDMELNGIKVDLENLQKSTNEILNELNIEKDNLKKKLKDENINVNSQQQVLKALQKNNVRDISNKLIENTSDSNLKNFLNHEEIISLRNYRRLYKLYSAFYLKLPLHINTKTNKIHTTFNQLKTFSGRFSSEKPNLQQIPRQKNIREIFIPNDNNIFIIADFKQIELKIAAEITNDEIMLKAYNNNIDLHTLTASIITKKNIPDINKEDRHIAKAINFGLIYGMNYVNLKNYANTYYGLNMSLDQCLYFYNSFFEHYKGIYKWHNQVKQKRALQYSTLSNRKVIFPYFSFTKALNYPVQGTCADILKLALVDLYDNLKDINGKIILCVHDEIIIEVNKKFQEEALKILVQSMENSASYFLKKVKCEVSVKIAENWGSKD",
  "experiment": "Fluorescence-based high-throughput DNA polymerase assay (molecular beacon), primary screen and dose-response;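 for % inhibition ApPOL 90': test concentration in µM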;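 for % inhibition apPOL 180': test concentration in µM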",
  "assay_type": "biochemical",
  "outline": "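Single-point screening used 10 µM compound with 20 nM polymerase, 20 nM hairpin substrate and 6 µM dNTPs for 90 min at 25 °C. Confirmatory titrations (2.5–80 µM) followed fluorescence at three times, and IC50 was derived from a fit including a cooperativity term n.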",
  "data": [
    {"compound": "Cn1nc(C(=O)N2CCc3c(nc4cc(-c5ccccc5)[nH]n4c3=O)C2)c2ccccc21", "note": "[Molecule 18, O=c1c2CCN(Cc2nc2n1[nH]c(c2)c1ccccc1)C(=O)c1nn(c2c1cccc2)C]", "values": [
      {"measurement": "DNA Pol", "setting": "186 hits, value of the hit list (primary screen); unit not given; 90 min, 10 µM", "result": 46},
      {"measurement": "% inhibition Apo pol 10'", "setting": "DRC-1; 10'; concentration 2.5", "result": 9, "unit": "%"},
      {"measurement": "% inhibition Apo pol 10'", "setting": "DRC-1; 10'; concentration 5", "result": 28, "unit": "%"},
      {"measurement": "% inhibition Apo pol 10'", "setting": "DRC-1; 10'; concentration 10", "result": 66, "unit": "%"},
      {"measurement": "% inhibition Apo pol 10'", "setting": "DRC-1; 10'; concentration 20", "result": 74, "unit": "%"},
      {"measurement": "% inhibition Apo pol 10'", "setting": "DRC-1; 10'; concentration 40", "result": 72, "unit": "%"},
      {"measurement": "% inhibition Apo pol 10'", "setting": "DRC-1; 10'; concentration 80", "result": 55, "unit": "%"},
      {"measurement": "% inhibition Apol 90'", "setting": "DRC-1; 90'; concentration 2.5", "result": 1.64, "unit": "%"},
      {"measurement": "% inhibition Apol 90'", "setting": "DRC-1; 90'; concentration 5", "result": 16, "unit": "%"},
      {"measurement": "% inhibition Apol 90'", "setting": "DRC-1; 90'; concentration 10", "result": 49, "unit": "%"},
      {"measurement": "% inhibition Apol 90'", "setting": "DRC-1; 90'; concentration 20", "result": 59, "unit": "%"},
      {"measurement": "% inhibition Apol 90'", "setting": "DRC-1; 90'; concentration 40", "result": 58, "unit": "%"},
      {"measurement": "% inhibition Apol 90'", "setting": "DRC-1; 90'; concentration 80", "result": 54, "unit": "%"},
      {"measurement": "% inhibition apPOL 180'", "setting": "DRC-1; 180'; concentration 2.5", "result": -3.8, "unit": "%"},
      {"measurement": "% inhibition apPOL 180'", "setting": "DRC-1; 180'; concentration 5", "result": 6, "unit": "%"},
      {"measurement": "% inhibition apPOL 180'", "setting": "DRC-1; 180'; concentration 10", "result": 33, "unit": "%"},
      {"measurement": "% inhibition apPOL 180'", "setting": "DRC-1; 180'; concentration 20", "result": 39, "unit": "%"},
      {"measurement": "% inhibition apPOL 180'", "setting": "DRC-1; 180'; concentration 40", "result": 34, "unit": "%"},
      {"measurement": "% inhibition apPOL 180'", "setting": "DRC-1; 180'; concentration 80", "result": 34, "unit": "%"},
      {"measurement": "% inhibition Apo pol 5'", "setting": "DRC-2, 5', concentration 2.5", "result": 5.33, "unit": "%"},
      {"measurement": "% inhibition Apo pol 5'", "setting": "DRC-2, 5', concentration 5", "result": 20, "unit": "%"},
      {"measurement": "% inhibition Apo pol 5'", "setting": "DRC-2, 5', concentration 10", "result": 36, "unit": "%"},
      {"measurement": "% inhibition Apo pol 5'", "setting": "DRC-2, 5', concentration 20", "result": 45, "unit": "%"},
      {"measurement": "% inhibition Apo pol 5'", "setting": "DRC-2, 5', concentration 40", "result": 43, "unit": "%"},
      {"measurement": "% inhibition Apo pol 5'", "setting": "DRC-2, 5', concentration 80", "result": 30, "unit": "%"},
      {"measurement": "% inhibition Apol 40'", "setting": "DRC-2, 40', concentration 2.5", "result": 4, "unit": "%"},
      {"measurement": "% inhibition Apol 40'", "setting": "DRC-2, 40', concentration 5", "result": 23, "unit": "%"},
      {"measurement": "% inhibition Apol 40'", "setting": "DRC-2, 40', concentration 10", "result": 40, "unit": "%"},
      {"measurement": "% inhibition Apol 40'", "setting": "DRC-2, 40', concentration 20", "result": 54, "unit": "%"},
      {"measurement": "% inhibition Apol 40'", "setting": "DRC-2, 40', concentration 40", "result": 56, "unit": "%"},
      {"measurement": "% inhibition Apol 40'", "setting": "DRC-2, 40', concentration 80", "result": 47, "unit": "%"},
      {"measurement": "% inhibition ApPOL 90'", "setting": "DRC-2, 90', concentration 2.5", "result": 4.38, "unit": "%"},
      {"measurement": "% inhibition ApPOL 90'", "setting": "DRC-2, 90', concentration 5", "result": 23, "unit": "%"},
      {"measurement": "% inhibition ApPOL 90'", "setting": "DRC-2, 90', concentration 10", "result": 39, "unit": "%"},
      {"measurement": "% inhibition ApPOL 90'", "setting": "DRC-2, 90', concentration 20", "result": 54, "unit": "%"},
      {"measurement": "% inhibition ApPOL 90'", "setting": "DRC-2, 90', concentration 40", "result": 55, "unit": "%"},
      {"measurement": "% inhibition ApPOL 90'", "setting": "DRC-2, 90', concentration 80", "result": 48, "unit": "%"},
      {"measurement": "% inhibition apPOL 180'", "setting": "DRC-2, 180', concentration 2.5", "result": 0.809, "unit": "%"},
      {"measurement": "% inhibition apPOL 180'", "setting": "DRC-2, 180', concentration 5", "result": 16, "unit": "%"},
      {"measurement": "% inhibition apPOL 180'", "setting": "DRC-2, 180', concentration 10", "result": 29, "unit": "%"},
      {"measurement": "% inhibition apPOL 180'", "setting": "DRC-2, 180', concentration 20", "result": 45, "unit": "%"},
      {"measurement": "% inhibition apPOL 180'", "setting": "DRC-2, 180', concentration 40", "result": 45, "unit": "%"},
      {"measurement": "% inhibition apPOL 180'", "setting": "DRC-2, 180', concentration 80", "result": 37, "unit": "%"},
      {"measurement": "% inhibition Apo pol 5'", "setting": "DRC-2; 5'; concentration 20", "result": 45, "unit": "%"},
      {"measurement": "% inhibition Apol 40'", "setting": "DRC-2; 40'; concentration 5", "result": 23, "unit": "%"},
      {"measurement": "% inhibition Apol 40'", "setting": "DRC-2; 40'; concentration 20", "result": 54, "unit": "%"},
      {"measurement": "% inhibition ApPOL 90'", "setting": "DRC-2; 90'; concentration 5", "result": 23, "unit": "%"},
      {"measurement": "% inhibition ApPOL 90'", "setting": "DRC-2; 90'; concentration 10", "result": 39, "unit": "%"},
      {"measurement": "% inhibition ApPOL 90'", "setting": "DRC-2; 90'; concentration 20", "result": 54, "unit": "%"},
      {"measurement": "% inhibition ApPOL 90'", "setting": "DRC-2; 90'; concentration 40", "result": 55, "unit": "%"},
      {"measurement": "% inhibition apPOL 180'", "setting": "DRC-2; 180'; concentration 5", "result": 16, "unit": "%"},
      {"measurement": "% inhibition apPOL 180'", "setting": "DRC-2; 180'; concentration 20", "result": 45, "unit": "%"},
      {"measurement": "% inhibition apPOL 180'", "setting": "DRC-2; 180'; concentration 40", "result": 45, "unit": "%"},
      {"measurement": "% inhibition Apo pol 10'", "setting": "first dose-response; 10'; concentration 80", "result": 55, "unit": "%"},
      {"measurement": "% inhibition Apol 90'", "setting": "first dose-response; 90'; concentration 5", "result": 16, "unit": "%"},
      {"measurement": "% inhibition Apol 90'", "setting": "first dose-response; 90'; concentration 80", "result": 54, "unit": "%"},
      {"measurement": "% inhibition apPOL 180'", "setting": "first dose-response; 180'; concentration 20", "result": 39, "unit": "%"},
      {"measurement": "% inhibition apPOL 180'", "setting": "first dose-response; 180'; concentration 40", "result": 34, "unit": "%"},
      {"measurement": "% inhibition apPOL 180'", "setting": "first dose-response; 180'; concentration 80", "result": 34, "unit": "%"},
      {"measurement": "DNA Pol", "setting": "primary screen value, 'DNA Pol' only; 90 min, 10 µM", "result": 46}
    ]}
  ]
}
